For data set [1] the following is noted: human being; Osamu et al. 1986; cited from earlier work.
The target in data set [2] is T1, bovine thrombin (Bos taurus, UniProt P00735). The conditions noted are these: for Ki: read-out: Inhibitory activity for thrombin, Ki, bovine thrombin, pH 7.8, initial velocity, reaction started with enzyme.
Text: (§1) The thrombin inhibitory effect of the compound of formula (I) according to the present invention can be identified by determination of a dissociation constant Ki represented by the following equation according to the known method described in literature [see, Methods in enzymology V. 80,p341-361;Biochemistry 27,p2144-2151 (1988)].
(§2) The dissociation constant Ki denotes the degree of dissociation of the enzyme-thrombin inhibitor complex. […] Such dissociation constant can be determined by reacting thrombin with a certain substrate which develops a color when it is hydrolyzed by the action of thrombin, and then measuring the degree of color development as a function of time by means of spectrophotometry.
(§3) Chromozym TH is hydrolyzed by thrombin to produce yellow para-nitroaniline. Accordingly, the amount of yellow para-nitroaniline thus produced can be measured as the change of absorbance in the course of time to determine the thrombin inhibitory activity of the compound according to the present invention. That is, the enzyme activity can be determined from the rate of change in absorbance and then can be directly connected with the ability of the thrombin inhibitor to inhibit the enzyme activity (see, Methods in Enzymology, V. 80,p341-361,Biochemistry 27, p2144-2151, 1988).
(§4) The ability of the compound according to the present invention to inhibit the thrombin activity was determined as described in the following.
(§5) 1160 μl of 0.1M tris buffered solution (pH 7.8) containing 150 mM NaCl and 0.1% PEG 8000 (polyethylene glycol, molecular weight about 8,000) was added to a 1.5 ml cuvette. Chromozym TH was dissolved in dimethylsulfoxide(DMSO) in the concentration of 10mM and the resulting solution was diluted with the said tris buffered solution to the concentration of 0.1 mM, which was then used as the substrate solution. 225 μl of 0.1 mM substrate solution thus prepared was added to the cuvette. The inhibitor solution was prepared by dissolving the thrombin inhibitor compound according to the present invention in dimethylsulfoxide in the concentration of 10 mg/ml and then diluting the resulting solution with the said tris buffered solution to the concentration of 0.1 mg/ml, 0.01 mg/ml, 0.001 mg/ml and 0.0001 mg/ml. The resulting inhibitor solution was taken in an amount corresponding to 0 to 10 μg as the inhibitor and then diluted with tris buffered solution to make the total volume of 100 μl which was added to the cuvette.
(§6) 15 μl of bovine thrombin solution dissolved in above tris buffered solution in the concentration of 0.1 mg/ml was added to the cuvette to initiate the enzyme hydrolysis reaction. The amount of para-nitroaniline produced for 2 minutes from the moment the enzyme is added was monitored by measuring the absorbance at 381 nm. The continuous spectrum of absorbance to reaction time was depicted. The same experiments were conducted for various concentration of the inhibitor to obtain the continuous spectrum.
(§7) In each spectrum, the initial velocity Vi was obtained from the slope within initial 30 seconds of the reaction time and then a graph for the reciprocal value of initial velocity(1/Vi) to the inhibitor concentration was depicted. From the graph, the primary equation satisfying the points depicted thereon was obtained and then the value Ki was calculated from the x intercept of the primary equation using the enzyme reaction equation.
(§8) The velocity constant Ks was obtained using the same solution in the same concentration as in determination of the value Ki but using the following experimental procedure.
In data set [3] the target is T1, bovine thrombin. As to the kind of experiment: biochemical.
Text: as §1, §2, §3, §4, §5, §6, §7, §8
The target in another data set is T2, trypsin (Bos taurus, UniProt P00760).
T2 sequence (P00760 24-246): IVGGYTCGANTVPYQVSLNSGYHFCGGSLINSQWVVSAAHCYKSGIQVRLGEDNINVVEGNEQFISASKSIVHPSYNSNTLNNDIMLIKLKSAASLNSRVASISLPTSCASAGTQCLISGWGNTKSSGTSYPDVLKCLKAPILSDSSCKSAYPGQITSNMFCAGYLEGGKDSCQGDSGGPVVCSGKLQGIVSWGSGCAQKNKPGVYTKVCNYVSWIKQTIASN
As to the kind of experiment: biochemical. In kind it is biochemical. To be noted: 20 μM substrate; read-out: Inhibitory activity for trypsin, Ki. How it is done:
To identify the selectivity for thrombin over trypsin of the compound of the present invention, the inhibitory activity for trypsin of the compound of formula (I) is measured as Ki value according to the same method as the above method for determination of thrombin inhibitory activity, and then the ratio of the activity for trypsin to the activity for thrombin is calculated. In this case, the procedure for determination of inhibitory activity for trypsin is substantially identical to that for thrombin, except that N-benzoyl-Val-Gly-Arg para-nitroanilide hydrochloride is used as the substrate.
As the substrate 20μM solution of N-benzoyl-Val-Gly-Arg-p-nitroanilide hydrochloride was used, and the inhibitor was used in various concnetrations within the range of […]. In addition, trypsin was dissolved in 0.1N HCl, adjusted to the concentration of 45 μg/ml with the said tris buffered solution just before the experiment, and then used in an amount of 40μl. As in the experiment for thrombin, a total volume of the reaction solution was 1.5 ml and the remaining procedure was conducted in the same manner.

Another data set has as its system thrombin over trypsin. To be noted: cited from earlier work.
The conditions of data set [4]: literature, cited from earlier work.

Where two headings read alike, the source gives them in different places. Bounds are passed on as bounds.

The Ki is a measure of affinity in units of concentration, obtained from inhibition or displacement. Broadly, the Km is the substrate concentration at which the rate is half of its maximum.
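Throughout, for Km: bovine thrombin cleaving the chromogenic substrate Chromozym TH, with para-nitroaniline release tracked as absorbance change over time to give initial rates, in Tris buffer at pH 7.8.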

As for `CC1CNc2c(cccc2S(=O)(=O)N[C@@H](CCCNC(=N)N)C(=O)N2CC[C@@H](C)C[C@@H]2C(=O)O)C1` (stereo partly shown) [Argatroban], in data set [1], the elimination half-life was 40 min.
Regarding `CCCCN(C)C(=O)[C@H](Cc1ccc(C(=N)NN)cc1)NS(=O)(=O)c1ccc2ccccc2c1` [Example 2, (S)-N-butyl-N-methyl-3-(4-amidrazonophenyl)-2-(2-naphthylsulfonylamino)propionamide], the Ki on bovine thrombin [2] came to 41 nM.
Consider `CCCN(C(=O)[C@H](Cc1ccc(C(=N)NN)cc1)NS(=O)(=O)c1ccc2ccccc2c1)C1CCCC1` [Example 3, (S)-N-cyclopentyl-N-propyl-3-(4-amidrazonophenyl)-2-(2-naphthylsulfonylamino)propionamide], for which, at bovine thrombin [2], the Ki is 93 nM.
Consider `CCCCN(C(=O)[C@H](Cc1ccc(C(=N)NN)cc1)NS(=O)(=O)c1ccc2ccccc2c1)C1CCCC1` [Example 5, (S)-N-cyclopentyl-N-butyl-3-(4-amidrazonophenyl)-2-(2-naphthylsulfonylamino)propionamide], for which, at bovine thrombin [2], the Ki stood at 231 nM.
In the case of `CNC(=N)c1ccc(C[C@H](NS(=O)(=O)c2ccc3ccccc3c2)C(=O)N(C)C2CCCC2)cc1` [Example 7, (S)-N-cyclopentyl-N-methyl-3-[4-(methylamidino)phenyl]-2-(2-naphthylsulfonylamino)propionamide], the Ki at bovine thrombin [3] was 13.8 nM; on trypsin it was 363000 nM.
In the case of `N=C(NN)c1ccc(C[C@H](NS(=O)(=O)c2ccc3ccccc3c2)C(=O)N(O)C2CCCC2)cc1` [Example 10, (S)-N-cyclopentyl-N-hydroxy-3-(4-amidrazonophenyl)-2-(2-naphthylsulfonylamino)propionamide], the Ki on bovine thrombin [2] was found to be 367 nM.
With `CN(C(=O)[C@H](Cc1ccc(C(=N)NN)cc1)NS(=O)(=O)c1ccc2ccccc2c1)C1CCCCC1` [Example 15, (S)-N-cyclohexyl-N-methyl-3-(4-amidrazonophenyl)-2-(2-naphthylsulfonylamino)propionamide], the Ki at bovine thrombin [2] came out at 152 nM.
For `CN(C(=O)[C@H](Cc1ccc(C(=N)NN)cc1)NS(=O)(=O)c1ccc2ccccc2c1)C1CC1` [Example 16, (S)-N-cyclopropyl-N-methyl-3-(4-amidrazonophenyl)-2-(2-naphthylsulfonylamino)propionamide], on bovine thrombin [2], the Ki is 247 nM.
With `CN(C)c1cccc2c(S(=O)(=O)N[C@@H](Cc3ccc(C(=N)NN)cc3)C(=O)N(C)C3CCCC3)cccc12` [Example 18, (S)-3-[4-(amidrazono)-phenyl]-N-cyclopentyl-N-methyl-2-(5-dimethylamino-naphthalene-1-sulfonylamino)-propionamide], the inhibitory constant (Ki) on bovine thrombin [3] came out at 11 nM; on trypsin, 3980 nM.
Consider `COc1cccc2c(S(=O)(=O)N[C@@H](Cc3ccc(C(=N)NN)cc3)C(=O)N(C)C3CCCC3)cccc12` [Example 19, (S)-3-[4-(amidrazono)-phenyl]-N-cyclopentyl-N-methyl-2-(5-methoxy-naphthalene-1-sulfonylamino)-propionamide], for which the inhibition constant Ki was found to be 5.3 nM on bovine thrombin [3] and 5250 nM at trypsin.
For `COc1cc2ccc(S(=O)(=O)N[C@@H](Cc3ccc(C(=N)NN)cc3)C(=O)N(C)C3CCCC3)cc2cc1OC` [Example 20, (S)-3-[4-(amidrazono)-phenyl]-N-cyclopentyl-N-methyl-2-(6,7-dimethoxy-naphthalene-2-sulfonylamino)-propionamide], in that order: 21.7 nM and 2300 nM.
On to `CNC(=N)c1ccc(C[C@H](NS(=O)(=O)c2cccc3c(N(C)C)cccc23)C(=O)N(C)C2CCCC2)cc1` [Example 21, (S)-3-[4-(methylamidino)-phenyl]-N-cyclopentyl-N-methyl-2-(5-dimethylamino-naphthalene-1-sulfonylamino)-propionamide], for which the inhibition constant (Ki) was 25 nM on bovine thrombin [3] and greater than 100000 nM on trypsin.
Consider `CN(C(=O)[C@H](Cc1ccc(C(=N)NN)cc1)NC(=O)COc1cccc2ccccc12)C1CCCC1` [Example 23, (S)-3-[4-(amidrazono)-phenyl]-N-cyclopentyl-N-methyl-2-[2-(naphthalen-1-yl-oxy)acetylamino]-propionamide], for which the Ki at bovine thrombin [3] stood at 2590 nM; at trypsin, 21700 nM.
In the case of `CS(=O)(=O)N1CCN(C(=O)[C@H](Cc2ccc(C(=N)NN)cc2)NS(=O)(=O)c2ccc3ccccc3c2)CC1` [Example 50, (S)-naphthalene-2-sulfonic acid [1-(4-amidrazono)benzyl-2-(4-methylsulfonyl-piperazinyl)-2-oxoethyl]amide], the inhibition constant (Ki) on bovine thrombin [3] worked out at 11 nM; on trypsin, 5790 nM.
In the case of `N=C(NN)c1ccc(C[C@H](NS(=O)(=O)c2ccc3ccccc3c2)C(=O)N2CCN(c3ccccc3)CC2)cc1` [Example 54, (S)-naphthalene-2-sulfonic acid [1-(4-amidrazono)benzyl-2-oxo-2-(4-phenyl-piperazinyl)-ethyl]amide], the inhibition constant Ki on bovine thrombin [3] worked out at 5380 nM.
`N=C(NN)c1ccc(C[C@H](NS(=O)(=O)c2ccc3ccccc3c2)C(=O)N2CCN(c3cccc(C(F)(F)F)c3)CC2)cc1` [Example 55, (S)-naphthalene-2-sulfonic acid [1-(4-amidrazono)-benzyl-2-oxo-2-[-4-(3-trifluoromethyl-phenyl)-piperazinyl]-ethyl]-amide] came in with an inhibition constant Ki at bovine thrombin [3] of 10000 nM.
`CC(=O)N1CCN(C(=O)[C@H](Cc2ccc(C(=N)NN)cc2)NS(=O)(=O)c2ccc3ccccc3c2)CC1` [Example 56, (S)-naphthalene-2-sulfonic acid [2-(4-acetyl-piperazinyl)-1-(4-amidrazono)benzyl-2-oxoethyl]amide] had an inhibitory constant (Ki) at bovine thrombin [3] of 280 nM.
On the same count and under the same terms, then `N=C(NN)c1ccc(C[C@H](NS(=O)(=O)c2ccc3ccccc3c2)C(=O)N2CCN(CCO)CC2)cc1` [Example 57, (S)-naphthalene-2-sulfonic acid [1-(4-amidrazono)benzyl-2-oxo-2-[4-(2-hydroxyethyl)-piperazinyl]-ethyl]amide], with 88 nM.
With `CCOc1ccccc1N1CCN(C(=O)[C@H](Cc2ccc(C(=N)NN)cc2)NS(=O)(=O)c2ccc3ccccc3c2)CC1` [Example 58, (S)-naphthalene-2-sulfonic acid [1-(4-amidrazono)benzyl-2-oxo-2-[4-(2-ethoxyphenyl)-piperazinyl]-ethyl]amide], affinity at bovine thrombin [3] was put at a Ki of 9130 nM.
In the case of `N=C(N)c1ccc(CC(NC(=O)CNS(=O)(=O)c2ccc3ccccc3c2)C(=O)N2CCCCC2)cc1` (stereo not shown) [NAPAP], the “thrombin inhibitory activity relative to activity for trypsin (selectivity)” value with thrombin over trypsin (literature) is on record as 50 times.
Turning to `N=C(N)N1CCC[C@@H](CNC(=O)C[C@H](NS(=O)(=O)c2ccc3ccccc3c2)C(=O)N(CC(=O)O)C2CC2)C1` [Ro 46-6240], the “possibility for oral administration” value in data set [4] (oral) was “does not show any possibility for oral administration”. Moreover, the “half-life in blood” value in data set [4] is “short half-life in blood”. Further, in the data set with thrombin over trypsin (literature (J. Med. Chem. 1994, 37, 3889-3901)), the “selectivity for thrombin over trypsin” value is on record as “improved selectivity for thrombin over trypsin”.
As for “Gly-Pro-Arg-4-nitroanilide acetate [Chromozym TH, reference compound]”, the Michaelis-Menten constant (Km) on bovine thrombin [2] (substrate of thrombin, constant enzyme concentration) was found to be 8.3 µM.

Source of the values: patent US5747535A, “Selective thrombin inhibitors” (priority 1995, dated 1998).
